Data published in PubChem BioAssay (NCI).
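How tested: cells in 96-well plates exposed to compound for 48 hours at five concentrations. At the GI50, growth is halved. TGI marks complete inhibition of growth.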

Experiments:
Experiment in all cases: growth of human tumour cells (NCI), 48 h
SF-539 CNS = system: SF-539 CNS
SNB-75 CNS = system: SNB-75 CNS
OVCAR-5 ovarian = system: OVCAR-5 ovarian
COLO 205 colon = system: COLO 205 colon
SK-MEL-5 melanoma = system: SK-MEL-5 melanoma
TK-10 renal = system: TK-10 renal
SK-MEL-28 melanoma = system: SK-MEL-28 melanoma
LOX IMVI melanoma = system: LOX IMVI melanoma
U251 CNS = system: U251 CNS
SF-295 CNS = system: SF-295 CNS

SMILES | GI50 (SF-539 CNS) | TGI (SF-539 CNS) | GI50 (SNB-75 CNS) | TGI (SNB-75 CNS) | GI50 (OVCAR-5 ovarian) | TGI (OVCAR-5 ovarian) | GI50 (COLO 205 colon) | TGI (COLO 205 colon) | GI50 (SK-MEL-5 melanoma) | TGI (SK-MEL-5 melanoma) | GI50 (TK-10 renal) | TGI (TK-10 renal) | GI50 (SK-MEL-28 melanoma) | TGI (SK-MEL-28 melanoma) | GI50 (LOX IMVI melanoma) | TGI (LOX IMVI melanoma) | GI50 (U251 CNS) | TGI (U251 CNS) | GI50 (SF-295 CNS) | TGI (SF-295 CNS)
Cc1cc(Nc2ccc(Cl)cc2)nc(NCCCNc2ccnc3cc(Cl)ccc23)n1 | 1.65 µM | 3.13 µM | 1.33 µM | 2.6 µM | 1.66 µM | 3.09 µM | 1.66 µM | 3.31 µM | 1.57 µM | 2.91 µM | 1.73 µM | 3.19 µM | 1.81 µM | 3.31 µM | 1.64 µM | 3.18 µM | 1.5 µM | 2.88 µM | 1.64 µM | 3.04 µM
NC(Cc1ccccc1CP(=O)(O)O)C(=O)O (stereo not given) | – | > 100 µM | – | > 100 µM | – | > 100 µM | – | > 100 µM | – | > 100 µM | – | > 100 µM | – | > 100 µM | – | > 100 µM | – | > 100 µM | – | > 100 µM
C/C(=N\NC(=S)N1CCOCC1)c1nc2ncccc2[nH]1 | – | 51.4 µM | – | 44.1 µM | – | > 100 µM | – | > 100 µM | – | > 100 µM | – | > 100 µM | – | > 100 µM | – | > 100 µM | – | 81.8 µM | – | 69.6 µM
